The target of data set [1] is T1, 72 kDa gelatinase of human origin (Homo sapiens, UniProt P08253).
T1 sequence (P08253 110-660): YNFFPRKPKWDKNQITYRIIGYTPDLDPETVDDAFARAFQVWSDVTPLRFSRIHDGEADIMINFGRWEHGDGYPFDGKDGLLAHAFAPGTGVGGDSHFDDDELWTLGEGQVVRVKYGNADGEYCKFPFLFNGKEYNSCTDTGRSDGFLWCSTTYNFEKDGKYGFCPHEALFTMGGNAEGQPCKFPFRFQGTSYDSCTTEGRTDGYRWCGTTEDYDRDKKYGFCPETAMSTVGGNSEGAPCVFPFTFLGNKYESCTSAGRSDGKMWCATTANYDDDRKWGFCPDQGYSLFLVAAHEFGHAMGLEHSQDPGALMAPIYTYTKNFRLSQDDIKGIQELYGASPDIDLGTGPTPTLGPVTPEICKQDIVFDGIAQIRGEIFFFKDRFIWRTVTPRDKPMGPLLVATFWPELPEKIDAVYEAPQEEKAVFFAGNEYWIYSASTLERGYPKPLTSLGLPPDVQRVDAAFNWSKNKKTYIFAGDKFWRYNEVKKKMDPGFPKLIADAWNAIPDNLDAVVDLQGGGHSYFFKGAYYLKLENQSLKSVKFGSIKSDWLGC
Nature of the data set: Activity on gelatinase, synthetic substrate. Type of data set: biochemical. The note with it: performed on synthetic substrate; read-out: C150 (nM) gelatinase 72 kDa**. How it is done:
The anti-gelatinase activity of the compounds according to the invention was determined on 72 kDa gelatinase of human origin, in accordance with the operating mode described by Knight, C. G., Willenbrock, F., Murphy, G. (FEBS Letters, 296 (3), 263-266, 1992).
The gelatinase was incubated at 37° C. for 10 minutes, and its activity was determined by the increase in fluorescence of the product of Mca-Pro-Leu breakdown of the Mca-Pro-Leu-Gly-Leu-Dpa-Ala-Arg-NH2 synthetic substrate.
The inhibiting concentration C150 for each compound was determined by measurement of the activity of the enzyme in the presence of the inhibitor at a concentration ranging between 10^−7 and 10^−12 M (the inhibitor is dissolved at a concentration of 10^−2 M in DMSO, then diluted successively by tenths in DMSO to 10^−4 M, then in the buffer: Tris, HCl 50 mM+0.05% Brij 35; CaCl2 10 mM; NaCl 0.15 M).

Data set [2] addresses 92 kDa gelatinase of human origin (Homo sapiens, UniProt P14780). The experiment in a line: Activity on gelatinase, radiomarked gelatin. Type of data set: biochemical. The note with it: test performed with radiomarked gelatin; read-out: C150 (nM) gelatinase 92 kDa*. The protocol:
The anti-gelatinase activity of the compounds according to the invention also was determined on 92 kDa or 72 kDa gelatinase of human origin, in accordance with the operating mode described by Harris, E. D., Krane, S. M.; (Biochem. Biophys. Acta, 258, 566-576, 1972).
The gelatinase was incubated at 37° C. for 16 hours with radiomarked gelatin, and its activity was determined by the release of the soluble peptides produced by the enzymatic breakdown of the gelatin. The inhibiting concentration C150 for each compound was determined by measurement of the activity of the enzyme in the presence of the inhibitor at a concentration ranging between 10^−7 and 10^−12 M (the inhibitor is dissolved in the same manner as for collagenase).

Data set [3] deals with stromelysine of human origin (Homo sapiens, UniProt P08254). Nature of the data set: Activity on stromelysine. The conditions noted are these: radiomarked transferrin, 37° C., 16 hours; read-out: C150 (nM) stromelysine. The data set is classed as biochemical. How it is done: The stromelysine was incubated at 37° C. for 16 hours with radiomarked transferrin, and its activity was determined by the release of the soluble peptides produced by the enzymatic breakdown of the transferrin. The inhibiting concentration C150 for each compound was determined by measurement of the activity of the enzyme in the presence of the inhibitor at a concentration ranging between 10^−7 and 10^−12 M (the inhibitor is dissolved in the same manner as for collagenase).
stromelysine of human origin, sequence (P08254 100-477): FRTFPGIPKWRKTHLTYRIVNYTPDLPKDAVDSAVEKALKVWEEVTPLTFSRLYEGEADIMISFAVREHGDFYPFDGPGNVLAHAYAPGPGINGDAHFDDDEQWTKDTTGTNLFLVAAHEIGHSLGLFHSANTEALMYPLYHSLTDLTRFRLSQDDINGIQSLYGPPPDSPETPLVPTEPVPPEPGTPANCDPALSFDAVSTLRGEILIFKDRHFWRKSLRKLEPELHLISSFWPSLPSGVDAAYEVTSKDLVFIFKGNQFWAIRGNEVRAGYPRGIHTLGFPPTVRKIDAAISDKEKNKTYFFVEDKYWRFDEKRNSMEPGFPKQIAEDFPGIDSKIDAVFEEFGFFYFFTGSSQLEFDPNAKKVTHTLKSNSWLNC

Data set [4] deals with release of TNF from the peritoneal macrophages of mice stimulated by LPS. Nature of the data set: Inhibition of the production of TNF in vitro. The data set is classed as cell-based. The note with it: Peritoneal macrophage; mouse peritoneal macrophages, LPS 100 ng/ml; read-out: C150 (μM) TNF. How it is done: The capacity of the compounds according to this invention to inhibit the release of TNF was determined from the peritoneal macrophages of mice stimulated by LPS (Lang, F., Robert, […], Petit, J. Y., J. Pharmacol. Exp. Ther., 275, 171-176, 1995). After an adhesion phase of 2 hours, the cells were treated for 1 hour with the compound to be tested at concentrations ranging between 10^-6 to 10^-9 M (the inhibitor is dissolved in DMSO at 10^-2 M, then at 5.10^-3 M in RPMI 1640 with 5% SVF, then diluted successively by tenths in the same medium), then stimulated by the addition of LPS (100 ng/ml in final concentration). Three hours later, the biological activity of the TNF in the supernatants was determined by a cytotoxicity test using the murine stock L929 in accordance with the operating procedure described by Band, G., Lin, […]., Evans, C. H. (Bioch. Biophys. Acta, 1134, 309-318, 1982). The pg/ml concentration of the TNF of the samples was determined from a murine αTNF standard curve, thus making it possible to define the inhibiting concentration […] of the compounds studied.

The target of data set [5] is T2, collagenase of the human monocytic stock U937 (Homo sapiens, UniProt P03956).
T2 construct: the collagenase of the human monocytic stock U937; endogenous in cells; host or cells: U937 human monocytic cell line
T2 sequence (P03956 100-469): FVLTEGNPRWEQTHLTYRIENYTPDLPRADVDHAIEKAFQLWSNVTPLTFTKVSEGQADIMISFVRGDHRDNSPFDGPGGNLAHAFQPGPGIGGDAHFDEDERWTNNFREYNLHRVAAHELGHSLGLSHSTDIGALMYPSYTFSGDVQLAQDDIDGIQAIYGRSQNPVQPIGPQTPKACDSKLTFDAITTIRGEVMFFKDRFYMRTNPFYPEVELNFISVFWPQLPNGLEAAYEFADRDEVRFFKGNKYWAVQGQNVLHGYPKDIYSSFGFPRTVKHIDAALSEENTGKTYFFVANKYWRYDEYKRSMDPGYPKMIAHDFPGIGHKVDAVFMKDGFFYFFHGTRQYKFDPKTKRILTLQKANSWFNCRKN
The experiment in a line: Activity on collagenase. The data set is classed as biochemical. The note with it: radiomarked collagen, 27° C., 16 hours; read-out: C150 (nM) collagenase. How it is done:
The collagenase was incubated at 27° C. for 16 hours with radiomarked collagen, and its activity was determined by the release of soluble peptides produced by the enzymatic breakdown of the collagen. The inhibiting concentration C150 for each compound was determined by measurement of the activity of the enzyme in the presence of the inhibitor at a concentration ranging between 10^−7 and 10^−12 M (the inhibitor is dissolved at a concentration of 10^−2 M in DMSO, then diluted successively by tenths in the buffer: Tris, HCl 150 mM, pH 7.5; NaCl 0.15 M; CaCl2 10 mM).

The structures appear in SMILES notation. Some results are limits rather than exact numbers.

92 kDa gelatinase of human origin, sequence (P14780 94-707): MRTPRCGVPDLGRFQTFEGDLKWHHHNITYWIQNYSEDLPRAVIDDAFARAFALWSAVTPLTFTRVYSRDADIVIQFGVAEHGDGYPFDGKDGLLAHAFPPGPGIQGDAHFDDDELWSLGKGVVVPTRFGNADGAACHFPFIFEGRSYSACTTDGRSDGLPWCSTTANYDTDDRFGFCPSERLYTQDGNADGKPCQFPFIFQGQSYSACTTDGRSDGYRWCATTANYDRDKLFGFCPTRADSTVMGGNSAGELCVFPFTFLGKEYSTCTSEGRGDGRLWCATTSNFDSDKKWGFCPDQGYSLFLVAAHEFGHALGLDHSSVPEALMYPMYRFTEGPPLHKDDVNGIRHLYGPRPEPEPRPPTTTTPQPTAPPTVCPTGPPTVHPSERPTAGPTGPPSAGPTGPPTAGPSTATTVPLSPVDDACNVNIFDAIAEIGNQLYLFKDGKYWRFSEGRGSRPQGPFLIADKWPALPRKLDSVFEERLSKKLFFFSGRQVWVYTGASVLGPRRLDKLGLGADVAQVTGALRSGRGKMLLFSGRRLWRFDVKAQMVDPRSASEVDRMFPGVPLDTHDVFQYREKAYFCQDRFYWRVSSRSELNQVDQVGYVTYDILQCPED

On to `CNC(=O)[C@H](Cc1ccc(N)cc1)NC(=O)[C@](O)(CC(C)C)[C@H](C)C(=O)NO` [Example 9, N-2(S)[1(S) (hydroxycarbamoyl) 1(S)ethyl]2-(S) hydroxy-4-methyl pentanoyl L-4-amino phenylalanine N-methylamide], for which the IC50 was 1.6 nM in data set [1]; 2 nM in data set [2]; 50 nM in data set [3]; 2.2 µM in data set [4]; 11 nM in data set [5].
For `CNC(=O)[C@@H](NC(=O)[C@](O)(CC(C)C)[C@H](C)C(=O)NO)C(C)(C)C` [Example 2, N-2-(S)[1(S)(hydroxycarbamoyl)ethyl]-2(S) hydroxy-4-methylpentanoyl 3-methyl-(S) valine N-methylamide], the IC50 in data set [1] turned out to be 3.4 nM; in data set [2], 16 nM; in data set [3], 60 nM; in data set [5], 18 nM.
`CSCCNC(=O)[C@H](Cc1ccc(Cl)cc1)NC(=O)[C@](O)(CC(C)C)[C@H](C)C(=O)NO` [Example 13, N-2(S)[-1-(S)(hydroxycarbamoyl)-1 ethyl]-2(S) hydroxy-4-methylpentanoylL-4-chlorophenylalanine N-(2 methylthio-1-ethyl) amide]: the IC50 in data set [1] is 1.6 nM; in data set [2] it was 0.005 nM; in data set [3], 20 nM; in data set [4], 0.15 µM; in data set [5], 10 nM.
Regarding `CNC(=O)[C@H](Cc1ccc(OC)cc1)NC(=O)[C@](O)(CC(C)C)[C@H](OC)C(=O)NO` [Example 31, N-2(S)[(S) hydroxycarbamoyl(S)methoxy]methyl 2(S) hydroxy-4 methyl pentanoyl O-methyl tyrosine N-methylamide], the IC50 in data set [1] worked out at 18 nM; in data set [2] it was 140 nM; in data set [3], 90 nM; in data set [5] it was 120 nM.
In the case of `CNC(=O)[C@H](Cc1ccc(I)cc1)NC(=O)[C@](O)(CC(C)C)[C@H](C)C(=O)NO` [Example 14, N-2(S)[1(S) hydroxycarbamoyl-1 ethyl]-2(S) hydroxy 4 methyl pentanoyl L-4-iodophenylalanine N-methylamide], the IC50 in data set [1] was 0.3 nM; in data set [2], 0.2 nM; in data set [3] it was 12 nM; in data set [4] it was 0.4 µM; in data set [5], 2 nM.
The corresponding values for `CNC(=O)[C@H](Cc1ccc(Cl)cc1)NC(=O)[C@](O)(CC(C)C)[C@H](O)C(=O)NO` [Example 3, N-2 (S) [(S) hydroxy (S) hydroxycarbamoylmethyl] 2(S) hydroxy 4-methyl pentanoyl L-4-chlorophenylalanine N-methylamide] are 6.7 nM, 54 nM, > 1000 nM, 3.2 µM and 50 nM.
Taken in the same sequence, the figures for `CSCCNC(=O)[C@H](Cc1ccc(I)cc1)NC(=O)[C@](O)(CC(C)C)[C@H](C)C(=O)NO` [Example 15, N-2(S)[1(S) hydroxycarbamoyl-1 ethyl]2(S) hydroxy 4-methylpentanoyl L-4-iodophenylalanine N-(2 methylthio-1-ethyl) amide] were 1.3 nM, 0.001 nM, 38 nM, 4.5 µM and 32 nM.
Consider `COc1ccc(C[C@H](NC(=O)[C@](O)(CC(C)C)[C@H](C)C(=O)NO)C(=O)NCc2ccccc2)cc1` [Example 5, N-2(S)[-1-(S)(hydroxycarbamoyl)-ethyl]-2(S) hydroxy-4-methyl 2entanol O methyl-L-tyrosine phenylmethylamide], for which the IC50 in data set [1] came out at 2.4 nM; in data set [2] it was 0.5 nM; in data set [3], 11 nM; in data set [5] it was 12 nM.
By melting point is commonly meant the temperature of the solid-liquid transition. The molecule `CNC(=O)[C@H](Cc1ccc(Cl)c(Cl)c1)NC(=O)[C@](O)(CC(C)C)[C@H](O)C(=O)NO` [Example 30] came in with a melting point of 194.1 °C. Also, the IC50 in data set [2] was 7 nM. For the same molecule, the IC50 in data set [3] was > 1000 nM. Also, in data set [4], the IC50 came to 3.6 µM. Besides, in data set [5], the IC50 was 11 nM.
`CNC(=O)[C@H](Cc1ccc(F)cc1)NC(=O)[C@](O)(CC(C)C)[C@H](C)C(=O)NO` [Example 16, N-2(S)[1(S)hydroxycarbamoyl-1 ethyl]-2(S) hydroxy 4-methylpentanoyl L-4-fluorophenylalanine N-methylamide] registered a melting point of 186.5 °C. Further, the IC50 in data set [1] was found to be 1.2 nM. Further, the IC50 in data set [2] turned out to be 2 nM. Also, the IC50 in data set [4] amounted to 0.6 µM. Besides, the IC50 in data set [5] came to 14 nM.
For `CNC(=O)[C@H](Cc1ccc(OC)cc1)NC(=O)[C@](O)(CC(C)C)[C@H](O)C(=O)NO` [Example 29], the melting point was 199 °C (dec.). The IC50 in data set [1] turned out to be 13 nM. Moreover, the IC50 in data set [2] was 80 nM. Further, the IC50 in data set [5] is 26 nM.
As for `CNC(=O)[C@H](Cc1ccc(OC)cc1)NC(=O)[C@H](CC(C)C)[C@H](C)C(=O)NO` [drawing 111, reference compound], the IC50 stood at 0.6 nM in data set [1]; 7 nM in data set [2]; 10 nM in data set [3]; 0.14 µM in data set [4]; 5 nM in data set [5].

The values above are taken from patent US6344457B1, “Amino acid derivatives inhibiting extracellular matrix metalloproteinase and TNF alpha release” (Chiesi Farmaceutici S.p.A., priority 1997, dated 2002).
